Assay results reported in article PMC11596610 (Molecules, 2024).
Read-outs that look alike come from different tables or passages of the source.

Assays:
[1] = Cytotoxicity assay with the rat L6 cell line (resazurin); assay type: cell-based
Experimental: Cultures were maintained at 37 °C in an atmosphere of 5% CO2. […] Plates were incubated at 37 °C under a 5% CO2 atmosphere for 24 h. After that, compounds were dissolved in DMSO (10 mM or 10 mg/mL), serial drug dilutions of eleven 3-fold dilution steps covering a range from 100 to 0.002 μg/mL or 100 to 0.002 µM were prepared, and the plates incubated at 37 °C under 5% CO2 for 70 h. […] The results were expressed as percentage of the untreated controls. Fifty percent inhibitory concentrations (IC50) were estimated by linear interpolation.

[2] = system: P. falciparum strain NF54; experiment: [3H]-hypoxanthine incorporation assay, antiplasmodial activity; assay type: cell-based; settings: Plasmodium falciparum
Experimental: Compounds were dissolved in DMSO at 10 mM, serial dilutions prepared in hypoxanthine-free culture medium (7-step dilution series; 2-fold serial dilutions) and 100 μL aliquots were dispensed in duplicates into 96-well cell culture plates. […] After incubation for 48 h, 0.25 μCi of [^3H]-hypoxanthine was added per well and plates were incubated for an additional 24 h. Parasites were harvested onto glass-fiber filters using a Microbeta FilterMate cell harvester (Perkin Elmer, Waltham, MA, USA) and radioactivity was counted using a MicroBeta2 liquid scintillation counter (Perkin Elmer, Waltham, MA, USA).

[3] = system: S. mansoni newly transformed schistosomula (NTS); experiment: Drug assay against S. mansoni NTS; assay type: cell-based, Schistosoma mansoni; settings: for IC50: Schistosoma mansoni
Source text: Harvested S. mansoni cercariae (Liberian strain) obtained from infected Biomphalaria glabrata snails were mechanically transformed into newly transformed schistosomula (NTS) following standard procedures as described. Artesunate and praziquantel were previously tested in the drug assay against S. mansoni NTS [39]. […] Culture medium was composed of M199 medium (Gibco, Waltham MA, USA) supplemented with 5% Horse Serum (Gibco, Waltham MA, USA), 1% penicillin/streptomycin mixture (Invitrogen, Carlsbad, CA, USA, 100 U/mL) and 1% Mäser Mix. Each compound was tested in triplicate. NTS incubated with no more than 1% DMSO served as control. NTS were kept in the incubator at 37 °C and 5% CO2 for up to 72 h. After 24, 48 and 72 h, the condition of the NTS was microscopically evaluated.

[4] = system: S. mansoni; experiment: Drug assay in vivo in S. mansoni-infected mice; set-up: species or system mice (NMRI); settings: single oral dose 200 mg/kg
Experimental: The in vivo study was carried out in accordance with Swiss national and cantonal regulations on animal welfare under the permission number 545. Female mice (NMRI strain; 3-week-old; weight ca. 20–22 g) were purchased from Charles River, Germany. Rodents were kept under environmentally controlled conditions (temperature ~25 °C; humidity ~70%; 12 h light, 12 h dark cycle) with free access to water and rodent diet, and acclimatized for one week before infection. […]. Untreated mice (n = 4) served as controls in all experiments. Two weeks post-treatment mice were dissected and all worms counted. Worm burden reductions were calculated.

[5] = system: S. mansoni adult worms; experiment: Drug assay against ex vivo S. mansoni adult worms; assay type: cell-based, Schistosoma mansoni; settings: for IC50: Schistosoma mansoni
Experimental: Female NMRI mice (age 3 weeks, weight ca. 14–20 g) were purchased from Charles River (Sulzfeld, Germany). […] To obtain adult schistosomes, NMRI mice were infected subcutaneously with 80 to 100 cercariae. After 49 days, the mice were euthanized with CO2 and the worms collected from the hepatic portal and mesenteric veins. […] Each compound was tested in duplicate. Artesunate and praziquantel were previously tested in the drug assay against S. mansoni adult worms. Schistosomes incubation with no more than 1% DMSO served as control. Worms were kept in an incubator at 37 °C and 5% CO2 for up to 72 h. After 24, 48 and 72 h, the condition of the worms was microscopically evaluated and scored as described above.

[6] = P. falciparum NF54, 3H-hypoxanthine incorporation, mean of 2 independent determinations, read-out: NF54 IC50

Structure (SMILES) | CC50 at 70 h ([1]; rat) [µM] | IC50 [2, 6] [nM] | IC50 ([3]; 24 h) [nM] | IC50 ([3]; 48 h) [nM] | IC50 ([3]; 72 h) [nM] | Effect in % ± SD ([3]; test conc. 1 µM, 24 h) [%] | Effect in % ± SD ([3]; test conc. 1 µM, 48 h) [%] | Effect in % ± SD ([3]; test conc. 1 µM, 72 h) [%] | Effect in % ± SD ([3]; test conc. 10 µM, 24 h) [%] | Effect in % ± SD ([3]; test conc. 10 µM, 48 h) [%] | Effect in % ± SD ([3]; test conc. 10 µM, 72 h) [%] | IC50 ([5]; 24 h) [µM] | IC50 ([5]; 48 h) [µM] | IC50 ([5]; 72 h) [µM] | Effect in % ± SD ([5]; test conc. 10 µM, 24 h) [%] | Effect in % ± SD ([5]; test conc. 10 µM, 48 h) [%] | Effect in % ± SD ([5]; test conc. 10 µM, 72 h) [%] | Effect in % ± SD ([5]; test conc. 25 µM, 24 h) [%] | Effect in % ± SD ([5]; test conc. 25 µM, 48 h) [%] | Effect in % ± SD ([5]; test conc. 25 µM, 72 h) [%] | other results
CC1=C(Cc2ccc(C(F)(F)F)cc2)C(=O)C2(C)CC=CC=C2C1=O (racemic) [Product 1, (±)-2,4a-dimethyl-3-(4-(trifluoromethyl)benzyl)-4a,5-dihydronaphthalene-1,4-dione] | 22.5 | 1850 ± 458 | 2700 | 2400 | 2000 | 18.87 ± 1.9 | 26.42 ± 1.9 | 28.57 ± 2 | 34.59 ± 1.3 | 35.35 ± 0.7 | 71.70 ± 9.4 | 0.8 | 0.2 | 0.6 | 53.7 ± 0.9 | 65.65 ± 3.1 | 66.7 ± 2.1 | 70.4 ± 3.7 | 73.15 ± 2.8 | 88.9 ± 0 | Effect in % ± SD ([3]; test conc. 25 µM, 24 h): 100 ± 0%; Effect in % ± SD ([3]; test conc. 25 µM, 48 h): 100 ± 0%; Effect in % ± SD ([3]; test conc. 25 µM, 72 h): 100 ± 0%; Total WBR (worm burden reduction) [4]: 15.7%; Cures ([4]; cured/treated): 0/4; Mean Number of Worms (SD) Females ([4]; two weeks post-treatment): 10.8 (1.0); Mean Number of Worms (SD) Liver ([4]; two weeks post-treatment): 0; Mean Number of Worms (SD) Mesenteric Veins ([4]; two weeks post-treatment): 21.5 (1.9); Mean Number of Worms (SD) Total ([4]; two weeks post-treatment): 21.5 (1.9); Effect in % ± SD ([5]; test conc. 1 µM, 24 h): 53.3 ± 0%; Effect in % ± SD ([5]; test conc. 1 µM, 48 h): 58.3 ± 0%; Effect in % ± SD ([5]; test conc. 1 µM, 72 h): 59.15 ± 0.8%
CC1=C(Cc2ccc(C(F)(F)F)cc2)C(=O)C2=CC=CCC2(C)C1=O (racemic) [Product 2, (±)-3,4a-dimethyl-2-(4-(trifluoromethyl)benzyl)-4a,5-dihydronaphthalene-1,4-dione] | 25.6 | 2390 ± 825 | 17400 | 8500 | 1700 | 20.75 ± 0 | 32.08 ± 0 | 36.73 ± 2 | 34.52 ± 6.2 | 51.43 ± 8.6 | 86.79 ± 1.9 | 22.7 | 17.3 | 15.2 | 42.75 ± 1 | 48.05 ± 2.9 | 50 ± 0 | 44.4 ± 0 | 49.05 ± 0.9 | 51.9 ± 0 | –
CCN(CC)CCCC(C)Nc1ccnc2cc(Cl)ccc12 (stereo not shown) [CQ diphosphate, Chloroquine diphosphate, reference compound] | – | – | – | – | – | – | – | – | – | – | – | – | – | – | – | – | – | – | – | – | IC50 ([2]; NF54, read-out: NF54 IC50): 4 ng/mL
COc1cc([C@@H]2c3cc4c(cc3[C@H](O)[C@H]3COC(=O)[C@H]23)OCO4)cc(OC)c1OC [Podophyllotoxin, podophyllotoxin, reference compound] | – | – | – | – | – | – | – | – | – | – | – | – | – | – | – | – | – | – | – | – | CC50 at 70 h ([1]; rat L6 cells, 70 h incubation, resazurin, read-out: L6 CC50): 0.01 µM
C[C@H]1[C@H](OC(=O)CCC(=O)O)O[C@@H]2O[C@@]3(C)CC[C@H]4[C@H](C)CC[C@@H]1[C@@]24OO3 [artesunate, reference compound] | – | – | – | – | – | – | – | – | – | – | – | – | – | – | – | – | – | – | – | – | IC50 ([2]; P. falciparum NF54, reference compounds, values printed in ng/mL, read-out: NF54 IC50): 1.52 ng/mL
